Activity calls are given as the source filed them.
Experiments:
[1] = A cytotoxicity screen of small molecule inhibitors of the PhoP region in Salmonella typhi identified in the primary screen. [Related pubchem assays: 1850, 1864, 1985 ]; assay type: functional
cells [2] = assay type: functional, cell-based
[3] = molecular target: T1, Nuclear receptor subfamily 0 group B member 1 (Homo sapiens, UniProt P51843); assay type: functional, cell-based;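 also: HEK293T cells transfected with SF-1 and DAX-1 plus StAR promoter luciferase reporter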
T1 sequence (P51843 whole entry): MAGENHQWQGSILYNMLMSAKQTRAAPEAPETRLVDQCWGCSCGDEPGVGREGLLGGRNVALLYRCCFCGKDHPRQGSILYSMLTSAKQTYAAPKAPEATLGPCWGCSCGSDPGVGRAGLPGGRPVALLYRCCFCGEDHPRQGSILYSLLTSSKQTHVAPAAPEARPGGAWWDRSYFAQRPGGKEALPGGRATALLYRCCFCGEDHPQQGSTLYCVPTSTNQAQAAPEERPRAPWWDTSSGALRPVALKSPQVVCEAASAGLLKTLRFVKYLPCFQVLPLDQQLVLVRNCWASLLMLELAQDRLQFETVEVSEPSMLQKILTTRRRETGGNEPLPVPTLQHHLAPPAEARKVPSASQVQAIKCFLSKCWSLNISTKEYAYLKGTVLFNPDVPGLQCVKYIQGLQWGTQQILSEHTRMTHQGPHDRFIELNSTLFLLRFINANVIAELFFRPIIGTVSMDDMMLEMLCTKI

[4] = inhibitors of intracellular T. cruzi replication, confirmation, NIH3T3 host cells, beta-gal luminescence (AID 2044); assay type: functional, cell-based;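 also: intracellular parasites grown in NIH/3T3 mouse fibroblasts as host cells; luminescent beta-galactosidase reporter signal from transgenic T. cruzi replicating inside host cells; inhibitors lower the luminescence signal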
[5] = cytotoxicity toward NIH3T3 fibroblasts, dose response, counter-screen, cell-based, ATP luminescence, mouse fibroblasts (AID 2010); assay type: functional;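 also: cells exposed to compound for about 90 hours before reading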
[6] = molecular target: Peroxisome proliferator-activated receptor gamma/Nuclear receptor coactivator 2 (Homo sapiens, UniProt P37231); assay type: functional;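 also: agonist potency for raising coactivator recruitment to the receptor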
[7] = molecular target: Peroxisome proliferator-activated receptor gamma/Nuclear receptor coactivator 3 (Homo sapiens, UniProt P37231); assay type: functional;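 also: agonist potency for raising coactivator recruitment to the receptor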
[8] = molecular target: Peroxisome proliferator-activated receptor gamma/Nuclear receptor coactivator 1 (Homo sapiens, UniProt P37231); assay type: functional;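 also: agonist potency as compounds enhance coactivator SRC-1 recruitment to PPARgamma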
cells [9] = assay type: functional
[10] = THP-1 cell cytotoxicity, dose response, cytotoxicity control for non-replicating M. tuberculosis project (AID 489025); assay type: functional
[11] = molecular target: Luciferin 4-monooxygenase (Photinus pyralis, UniProt P08659); assay: firefly luciferase enzyme inhibitors, dose response, biochemical, luminescence (AID 1891)
[12] = Luminescence Cell-Based Dose Confirmation HTS to Identify Inhibitors of Platelet Dense Granule Release. [Related pubchem assays: 1663 (Primary HTS), 1678 (Summary of Project)]; assay type: functional
Cytochrome P450 3A4 = Cytochrome P450 3A4 (Homo sapiens, UniProt P08684);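 also: CYP3A4 tested as one member of a cytochrome P450 panel screen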
Trypsin = Trypsin (Sus scrofa, UniProt P00761); assay: porcine trypsin inhibitors, dose response, selectivity assay for Rce1 protease inhibitor project, biochemical, quenched peptide fluorescence, cherry-pick (AID 488789)
Cytochrome P450 2C9 = Cytochrome P450 2C9 (Homo sapiens, UniProt P11712)
fMet-Leu-Phe receptor = molecular target: T2, fMet-Leu-Phe receptor (Homo sapiens, UniProt P21462); assay: FPR ligands, dose response (AID 519); assay type: functional
T2 sequence (P21462 whole entry): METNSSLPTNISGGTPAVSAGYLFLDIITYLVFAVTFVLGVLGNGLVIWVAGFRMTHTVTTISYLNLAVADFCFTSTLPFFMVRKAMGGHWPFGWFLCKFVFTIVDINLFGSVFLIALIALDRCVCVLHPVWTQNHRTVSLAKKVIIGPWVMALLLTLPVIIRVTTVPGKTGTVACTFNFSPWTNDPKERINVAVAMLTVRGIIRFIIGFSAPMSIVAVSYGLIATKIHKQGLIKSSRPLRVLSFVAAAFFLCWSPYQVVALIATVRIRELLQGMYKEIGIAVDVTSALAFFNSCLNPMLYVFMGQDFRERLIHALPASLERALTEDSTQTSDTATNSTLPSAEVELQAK

[13] = molecular target: Induced myeloid leukemia cell differentiation protein Mcl-1 (Homo sapiens, UniProt Q07820); assay type: functional
Caspase-6 = molecular target: T3, Caspase-6 (Homo sapiens, UniProt P55212); assay: human caspase-6 inhibitors, dose response, biochemical, VEID-R110 fluorescence, cherry-pick (AID 720632)
T3 sequence (P55212 whole entry): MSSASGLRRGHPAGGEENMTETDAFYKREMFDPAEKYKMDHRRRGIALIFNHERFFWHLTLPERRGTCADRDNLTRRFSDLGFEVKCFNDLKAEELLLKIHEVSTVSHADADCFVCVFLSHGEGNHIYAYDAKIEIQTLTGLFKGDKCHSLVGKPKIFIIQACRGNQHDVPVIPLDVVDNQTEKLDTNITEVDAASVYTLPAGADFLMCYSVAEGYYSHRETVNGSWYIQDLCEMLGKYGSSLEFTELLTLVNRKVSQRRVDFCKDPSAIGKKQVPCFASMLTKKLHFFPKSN

[14] = molecular target: T4, Sentrin-specific protease 8 (Homo sapiens, UniProt Q96LD8); assay type: functional
T4 sequence (Q96LD8 whole entry): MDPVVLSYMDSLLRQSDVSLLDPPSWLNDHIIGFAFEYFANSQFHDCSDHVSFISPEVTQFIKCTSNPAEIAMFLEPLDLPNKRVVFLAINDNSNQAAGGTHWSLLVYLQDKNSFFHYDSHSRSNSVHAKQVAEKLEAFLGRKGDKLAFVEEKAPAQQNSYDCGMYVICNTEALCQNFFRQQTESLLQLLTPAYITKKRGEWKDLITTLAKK

[15] = molecular target: T4, Sentrin-specific protease 8; assay type: functional; remark: listed apart in the source

Sequence of Peroxisome proliferator-activated receptor gamma/Nuclear receptor coactivator 1 (P37231 whole entry): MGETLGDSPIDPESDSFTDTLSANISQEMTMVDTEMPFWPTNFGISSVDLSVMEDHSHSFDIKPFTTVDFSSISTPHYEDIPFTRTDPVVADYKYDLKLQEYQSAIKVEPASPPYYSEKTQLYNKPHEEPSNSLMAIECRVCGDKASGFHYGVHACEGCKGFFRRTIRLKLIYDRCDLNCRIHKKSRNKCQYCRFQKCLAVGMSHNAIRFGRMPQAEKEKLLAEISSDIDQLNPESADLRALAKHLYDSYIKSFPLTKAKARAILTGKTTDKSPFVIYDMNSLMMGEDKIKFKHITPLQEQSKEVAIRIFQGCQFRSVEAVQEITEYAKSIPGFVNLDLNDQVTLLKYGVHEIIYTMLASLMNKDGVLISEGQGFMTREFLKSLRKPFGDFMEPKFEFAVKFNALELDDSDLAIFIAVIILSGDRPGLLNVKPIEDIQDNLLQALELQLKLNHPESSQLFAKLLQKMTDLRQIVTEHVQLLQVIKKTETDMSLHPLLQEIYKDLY
Sequence of Peroxisome proliferator-activated receptor gamma/Nuclear receptor coactivator 1 (Q15788 whole entry, further chain): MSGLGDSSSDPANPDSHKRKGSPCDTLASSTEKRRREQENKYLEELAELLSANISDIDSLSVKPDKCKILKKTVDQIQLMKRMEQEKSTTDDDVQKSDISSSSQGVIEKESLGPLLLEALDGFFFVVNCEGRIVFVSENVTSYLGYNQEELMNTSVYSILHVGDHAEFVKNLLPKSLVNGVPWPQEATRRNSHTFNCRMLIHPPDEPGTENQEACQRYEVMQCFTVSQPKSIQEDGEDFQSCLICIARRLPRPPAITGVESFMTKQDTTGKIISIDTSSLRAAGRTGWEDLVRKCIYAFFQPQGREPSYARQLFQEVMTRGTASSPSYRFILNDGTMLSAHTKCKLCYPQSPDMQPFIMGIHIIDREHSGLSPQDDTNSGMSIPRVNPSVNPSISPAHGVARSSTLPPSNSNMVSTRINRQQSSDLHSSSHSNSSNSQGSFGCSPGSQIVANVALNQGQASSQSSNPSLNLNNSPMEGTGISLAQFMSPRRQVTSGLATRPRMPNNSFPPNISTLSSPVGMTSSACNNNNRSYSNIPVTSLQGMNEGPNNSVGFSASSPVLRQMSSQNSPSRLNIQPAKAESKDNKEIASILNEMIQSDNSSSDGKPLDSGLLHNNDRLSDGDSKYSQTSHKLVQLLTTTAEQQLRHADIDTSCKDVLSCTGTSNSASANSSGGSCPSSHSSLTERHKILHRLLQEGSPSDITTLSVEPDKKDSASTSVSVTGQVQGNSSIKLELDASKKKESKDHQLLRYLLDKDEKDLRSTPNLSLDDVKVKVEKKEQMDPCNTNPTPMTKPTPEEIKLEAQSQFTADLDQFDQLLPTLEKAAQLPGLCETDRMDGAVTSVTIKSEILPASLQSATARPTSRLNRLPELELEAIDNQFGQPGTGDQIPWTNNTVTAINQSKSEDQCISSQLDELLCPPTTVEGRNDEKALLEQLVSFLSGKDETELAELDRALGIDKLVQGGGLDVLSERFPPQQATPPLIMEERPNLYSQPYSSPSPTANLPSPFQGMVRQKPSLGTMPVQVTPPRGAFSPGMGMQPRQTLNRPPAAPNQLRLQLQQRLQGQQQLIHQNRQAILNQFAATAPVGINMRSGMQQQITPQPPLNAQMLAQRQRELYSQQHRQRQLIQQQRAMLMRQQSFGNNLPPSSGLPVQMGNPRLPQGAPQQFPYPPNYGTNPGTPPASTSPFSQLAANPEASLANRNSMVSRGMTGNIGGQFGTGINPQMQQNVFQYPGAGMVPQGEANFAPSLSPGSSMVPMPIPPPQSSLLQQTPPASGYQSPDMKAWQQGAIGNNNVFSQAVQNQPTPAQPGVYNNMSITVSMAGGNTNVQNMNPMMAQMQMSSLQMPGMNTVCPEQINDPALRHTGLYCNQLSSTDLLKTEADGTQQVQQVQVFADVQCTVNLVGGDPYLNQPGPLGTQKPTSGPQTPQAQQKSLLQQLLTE
Sequence of Peroxisome proliferator-activated receptor gamma/Nuclear receptor coactivator 3 (P37231 whole entry): as the sequence (P37231 whole entry) above
Sequence of Peroxisome proliferator-activated receptor gamma/Nuclear receptor coactivator 3 (Q9Y6Q9 whole entry, further chain): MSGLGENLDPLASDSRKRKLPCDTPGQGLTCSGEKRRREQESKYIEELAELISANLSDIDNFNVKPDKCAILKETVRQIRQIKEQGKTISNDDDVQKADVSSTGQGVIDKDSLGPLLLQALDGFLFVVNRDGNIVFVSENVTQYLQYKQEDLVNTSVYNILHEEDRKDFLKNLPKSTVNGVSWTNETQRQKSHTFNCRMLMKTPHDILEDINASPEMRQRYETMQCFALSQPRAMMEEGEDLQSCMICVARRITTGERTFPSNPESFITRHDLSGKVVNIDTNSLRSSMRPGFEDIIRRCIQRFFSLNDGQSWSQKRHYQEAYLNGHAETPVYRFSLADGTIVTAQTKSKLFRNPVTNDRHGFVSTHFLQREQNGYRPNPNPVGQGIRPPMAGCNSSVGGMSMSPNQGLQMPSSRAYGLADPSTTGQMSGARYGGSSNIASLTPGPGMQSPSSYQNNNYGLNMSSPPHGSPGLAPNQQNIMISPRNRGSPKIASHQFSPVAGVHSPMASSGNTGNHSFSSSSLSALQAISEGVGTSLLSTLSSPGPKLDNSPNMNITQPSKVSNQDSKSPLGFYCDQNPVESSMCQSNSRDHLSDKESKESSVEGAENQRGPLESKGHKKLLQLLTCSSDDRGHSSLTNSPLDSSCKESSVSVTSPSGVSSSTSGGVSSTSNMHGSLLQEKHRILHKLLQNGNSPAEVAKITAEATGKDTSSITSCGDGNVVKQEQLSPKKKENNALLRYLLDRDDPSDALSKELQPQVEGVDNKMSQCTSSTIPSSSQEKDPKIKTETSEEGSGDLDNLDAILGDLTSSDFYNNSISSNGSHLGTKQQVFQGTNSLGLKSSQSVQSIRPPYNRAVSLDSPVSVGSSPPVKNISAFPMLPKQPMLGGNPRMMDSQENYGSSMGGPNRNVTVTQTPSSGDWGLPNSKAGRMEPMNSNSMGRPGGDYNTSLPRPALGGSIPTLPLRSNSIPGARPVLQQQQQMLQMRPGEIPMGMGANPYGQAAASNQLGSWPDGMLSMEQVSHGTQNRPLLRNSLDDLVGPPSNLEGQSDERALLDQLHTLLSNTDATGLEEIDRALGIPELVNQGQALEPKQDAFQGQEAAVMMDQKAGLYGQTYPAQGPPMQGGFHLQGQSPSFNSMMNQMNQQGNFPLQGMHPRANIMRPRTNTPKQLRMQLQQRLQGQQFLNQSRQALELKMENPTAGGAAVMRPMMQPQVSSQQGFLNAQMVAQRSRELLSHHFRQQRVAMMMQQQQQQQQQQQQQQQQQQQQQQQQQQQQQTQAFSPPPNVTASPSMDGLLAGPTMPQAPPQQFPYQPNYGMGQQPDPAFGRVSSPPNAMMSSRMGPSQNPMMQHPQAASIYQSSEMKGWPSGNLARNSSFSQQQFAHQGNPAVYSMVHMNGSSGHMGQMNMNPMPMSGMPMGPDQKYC
Sequence of Trypsin (P00761 whole entry): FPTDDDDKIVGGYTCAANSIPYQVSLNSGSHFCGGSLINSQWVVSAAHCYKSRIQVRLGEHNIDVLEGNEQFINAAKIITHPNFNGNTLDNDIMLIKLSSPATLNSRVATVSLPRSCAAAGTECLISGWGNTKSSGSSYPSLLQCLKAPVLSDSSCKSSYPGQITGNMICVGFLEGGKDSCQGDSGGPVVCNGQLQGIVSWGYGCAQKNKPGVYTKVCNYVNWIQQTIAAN
Sequence of Luciferin 4-monooxygenase (P08659 whole entry): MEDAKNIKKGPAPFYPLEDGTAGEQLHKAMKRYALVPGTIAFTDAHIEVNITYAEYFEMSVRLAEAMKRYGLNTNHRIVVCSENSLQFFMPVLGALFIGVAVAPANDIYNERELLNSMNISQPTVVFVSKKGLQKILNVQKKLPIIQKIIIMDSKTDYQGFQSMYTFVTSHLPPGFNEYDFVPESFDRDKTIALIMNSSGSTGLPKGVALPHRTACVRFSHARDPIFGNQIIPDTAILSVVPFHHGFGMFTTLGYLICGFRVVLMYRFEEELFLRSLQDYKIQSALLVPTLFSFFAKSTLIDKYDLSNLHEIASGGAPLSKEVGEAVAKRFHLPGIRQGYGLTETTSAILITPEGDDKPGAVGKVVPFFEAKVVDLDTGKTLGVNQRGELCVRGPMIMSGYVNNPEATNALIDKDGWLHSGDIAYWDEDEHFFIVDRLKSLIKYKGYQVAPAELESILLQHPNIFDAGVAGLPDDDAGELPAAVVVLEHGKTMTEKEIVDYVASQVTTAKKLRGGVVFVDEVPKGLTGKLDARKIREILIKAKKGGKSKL
Sequence of Induced myeloid leukemia cell differentiation protein Mcl-1 (Q07820 whole entry): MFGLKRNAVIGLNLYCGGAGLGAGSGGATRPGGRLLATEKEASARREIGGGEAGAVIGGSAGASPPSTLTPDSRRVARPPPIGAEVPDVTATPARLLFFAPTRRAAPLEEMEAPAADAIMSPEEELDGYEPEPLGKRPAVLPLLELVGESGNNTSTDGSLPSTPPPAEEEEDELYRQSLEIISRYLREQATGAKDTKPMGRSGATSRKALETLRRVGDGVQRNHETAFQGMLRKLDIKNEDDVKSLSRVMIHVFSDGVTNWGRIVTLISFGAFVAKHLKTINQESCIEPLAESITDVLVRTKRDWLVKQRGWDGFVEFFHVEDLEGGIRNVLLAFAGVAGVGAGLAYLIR

Cc1cccc(N2CCN(C(=O)C3CCN(c4nnc(-n5cccc5)s4)CC3)CC2C)c1 (stereo unspecified)
EC50 [1]: > 50 µM (active)

O=C(CCS(=O)(=O)c1ccccc1)N(CCCN1CCOCC1)c1nc2ccc(F)cc2s1
IC50 (cells [2]): > 67.5 µM (inactive) | IC50 [3]: > 67.5 µM (inactive) | EC50 [4]: 2.06 µM (active) | EC50 [5]: 6.18 µM (active)

CCOC(=O)COc1ccc(/C=C2\NC(=S)N(CC)C2=O)cc1
EC50 [6]: > 79.4 µM (not active) | EC50 [7]: > 79.4 µM (not active) | EC50 [8]: > 79.4 µM (not active) | IC50 (cells [9]): 3.34 µM (active) | CC50 [10]: > 40 µM (active)

CN1CCC(OC(=O)c2ccc(Cl)cc2Cl)CC1
EC50 [1]: > 50 µM (active) | EC50 [4]: 0.127 µM (active) | EC50 [5]: > 60 µM (not active)

Brc1ccc(/C=N/c2ccc(Nc3ccccc3)cc2)s1
EC50 [6]: > 79.4 µM (not active) | EC50 [7]: > 79.4 µM (not active) | EC50 [8]: > 79.4 µM (not active)

O=C(/C=C\Nc1ccc2c(c1)OCO2)c1cccs1
EC50 [11]: 0.912 µM (active) | IC50 (cells [2]): > 67.5 µM (inactive) | IC50 [3]: > 67.5 µM (inactive) | EC50 [12]: 6.14 µM (active)

O=S(=O)(c1ccccc1)c1cnn2c(C(F)(F)F)cc(-c3ccc(F)cc3)nc12
AC50 (Cytochrome P450 3A4): 3.16 µM (inconclusive) | EC50 [6]: > 79.4 µM (not active) | EC50 [7]: > 79.4 µM (not active) | AC50 (Trypsin): 20.2 µM (active) | EC50 [8]: > 79.4 µM (not active) | AC50 (Cytochrome P450 2C9): inconclusive

N[C@@H](Cc1ccc(O)c(I)c1)C(=O)O [IOTYROSINE]
Ki (fMet-Leu-Phe receptor): > 66.7 µM (inactive)

COCCN1C(=O)C(O)=C(C(=O)c2cccs2)C1c1ccccc1 (stereo unspecified)
Ki (fMet-Leu-Phe receptor): > 66.7 µM (inactive)

N=c1oc2cc(O)ccc2cc1C(=O)Nc1nc2ccccc2s1
AC50 (Trypsin): 12.4 µM (active) | IC50 [13]: 3.21 µM (active)

O=C1Cc2ccccc2C(=O)N1Cc1cccc(Cl)c1
AC50 (Caspase-6): 13 µM (active) | IC50 [14]: > 100 µM (inactive) | IC50 [15]: 0.528 µM (active)

O=C(COC(=O)c1ccc([N+](=O)[O-])o1)NC1CCS(=O)(=O)C1 (stereo unspecified)
AC50 (Caspase-6): 39.7 µM (active) | IC50 [14]: 9.9 µM (active) | IC50 [15]: 8.96 µM (active)
